Source: ChEMBL document CHEMBL4007389, “Discovery and evaluation of inhibitors to the immunosuppressive enzyme indoleamine 2,3-dioxygenase 1 (IDO1): Probing the active site-inhibitor interactions” (Eur J Med Chem, 2017)
Blank lines part the entries; values can stand above or below the molecule they belong to.

Columns and labels:
[1] = target: Indoleamine 2,3-dioxygenase 1 (Homo sapiens, UniProt P14902, S167A)
[2] = system: Indoleamine 2,3-dioxygenase 1 (Homo sapiens), P14902 [S167A]; assay: Inhibition of recombinant human IDO1 S167A mutant expressed in Escherichia coli SG13009(pREP4) at 20 uM using L-Tryptophan as substrate after 25 mins by fluorescence assay relative to control
Sequence of Indoleamine 2,3-dioxygenase 1 (Homo sapiens), P14902 [S167A] (P14902 whole entry S167A): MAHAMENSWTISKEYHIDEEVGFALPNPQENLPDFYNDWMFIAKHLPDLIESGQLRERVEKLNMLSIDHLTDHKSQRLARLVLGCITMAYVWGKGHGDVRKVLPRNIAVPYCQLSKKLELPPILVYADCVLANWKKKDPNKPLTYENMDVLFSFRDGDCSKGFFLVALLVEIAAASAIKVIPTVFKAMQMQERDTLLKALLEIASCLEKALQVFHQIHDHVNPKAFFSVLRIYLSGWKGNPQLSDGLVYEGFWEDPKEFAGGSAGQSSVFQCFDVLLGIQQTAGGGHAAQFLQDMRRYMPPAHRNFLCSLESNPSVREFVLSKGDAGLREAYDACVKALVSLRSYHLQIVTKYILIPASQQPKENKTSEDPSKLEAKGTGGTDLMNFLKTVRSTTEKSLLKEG

Homo sapiens = species: Homo sapiens; assay: Selectivity ratio of IC50 for recombinant human IDO1 S167A mutant expressed in Escherichia coli SG13009(pREP4) to IC50 for recombinant human IDO1 expressed in bacterial expression system
[3] = target: T1, Indoleamine 2,3-dioxygenase 1 (Homo sapiens, UniProt P14902); assay: Inhibition of recombinant human IDO1 expressed in bacterial expression system using L-Tryptophan as substrate after 25 mins in absence of GSH and presence of tween20 by fluorescence assay
Target sequence in this assay (P14902 whole entry): as the sequence (P14902 whole entry S167A) above, with A167S counted along it

[4] = target: T1, Indoleamine 2,3-dioxygenase 1; assay: Inhibition of recombinant human IDO1 expressed in bacterial expression system at 400 uM using L-Tryptophan as substrate after 25 mins by fluorescence assay relative to control
Target sequence in this assay (P14902 whole entry, looked up): as the sequence (P14902 whole entry S167A) above, with A167S counted along it

[5] = Cytotoxicity against mouse LLTC cells assessed as reduction in cell viability after 24 hrs by MTT assay; assay type: cell-based; conditions: read-out: LC50
[6] = target: T1, Indoleamine 2,3-dioxygenase 1; conditions: 80 uM
Target sequence in this assay (P14902 whole entry, looked up): as the sequence (P14902 whole entry S167A) above, with A167S counted along it

[7] = target: T1, Indoleamine 2,3-dioxygenase 1; assay: Inhibition of recombinant human IDO1 expressed in bacterial expression system using L-Tryptophan as substrate after 25 mins in presence of GSH and tween20 by fluorescence assay
Target sequence in this assay (P14902 whole entry): as the sequence (P14902 whole entry S167A) above, with A167S counted along it

[8] = target: T1, Indoleamine 2,3-dioxygenase 1; assay: Inhibition of recombinant human IDO1 expressed in bacterial expression system using L-Tryptophan as substrate after 25 mins in absence of GSH and tween20 by fluorescence assay
Target sequence in this assay (P14902 whole entry): as the sequence (P14902 whole entry S167A) above, with A167S counted along it

[9] = target: T1, Indoleamine 2,3-dioxygenase 1; assay: Inhibition of full length recombinant human His-tagged IDO1 expressed in mouse LLTC cells using L-tryptophan as substrate after 24 hrs; assay type: cell-based
Target sequence in this assay (P14902 whole entry): as the sequence (P14902 whole entry S167A) above, with A167S counted along it

[10] = target: T1, Indoleamine 2,3-dioxygenase 1; assay: Irreversible inhibition of recombinant human IDO1 expressed in bacterial expression system at 3 uM using L-Tryptophan as substrate after preincubated for 90 mins followed by 100 fold compound dilution measured after 15 mins by fluorescence assay relative to control
Target sequence in this assay (P14902 whole entry, looked up): as the sequence (P14902 whole entry S167A) above, with A167S counted along it

[11] = system: Indoleamine 2,3-dioxygenase 1 (Homo sapiens), P14902 [S167A]; assay: Inhibition of recombinant human IDO1 S167A mutant expressed in Escherichia coli SG13009(pREP4) at 400 uM using L-Tryptophan as substrate after 25 mins by fluorescence assay relative to control
[12] = target: T1, Indoleamine 2,3-dioxygenase 1; assay: Inhibition of recombinant human IDO1 expressed in bacterial expression system at 200 uM using L-Tryptophan as substrate after 25 mins by fluorescence assay relative to control
Target sequence in this assay (P14902 whole entry, looked up): as the sequence (P14902 whole entry S167A) above, with A167S counted along it

[13] = target: Indoleamine 2,3-dioxygenase 1 (Homo sapiens, UniProt P14902, C129A); assay: Inhibition of recombinant human IDO1 C129A mutant expressed in Escherichia coli SG13009(pREP4) using L-Tryptophan as substrate after 25 mins by fluorescence assay
Sequence of Indoleamine 2,3-dioxygenase 1 (Homo sapiens, UniProt P14902, C129A) (P14902 whole entry C129A): as the sequence (P14902 whole entry S167A) above, with C129A, A167S counted along it

[14] = system: Indoleamine 2,3-dioxygenase 1 (Homo sapiens), P14902 [C129A]; assay: Inhibition of recombinant human IDO1 C129A mutant expressed in Escherichia coli SG13009(pREP4) at 20 uM using L-Tryptophan as substrate after 25 mins by fluorescence assay relative to control
Sequence of Indoleamine 2,3-dioxygenase 1 (Homo sapiens), P14902 [C129A] (P14902 whole entry C129A): as the sequence (P14902 whole entry S167A) above, with C129A, A167S counted along it

[15] = target: T1, Indoleamine 2,3-dioxygenase 1; assay: Inhibition of recombinant human IDO1 expressed in bacterial expression system at 150 uM using L-Tryptophan as substrate after 25 mins by fluorescence assay relative to control
Target sequence in this assay (P14902 whole entry, looked up): as the sequence (P14902 whole entry S167A) above, with A167S counted along it

[16] = target: T1, Indoleamine 2,3-dioxygenase 1; assay: Inhibition of recombinant human IDO1 expressed in bacterial expression system at 100 uM using L-Tryptophan as substrate after 25 mins by fluorescence assay relative to control
Target sequence in this assay (P14902 whole entry, looked up): as the sequence (P14902 whole entry S167A) above, with A167S counted along it

[17] = target: T1, Indoleamine 2,3-dioxygenase 1; assay: Inhibition of recombinant human IDO1 expressed in bacterial expression system at 350 uM using L-Tryptophan as substrate after 25 mins by fluorescence assay relative to control
[18] = target: T1, Indoleamine 2,3-dioxygenase 1; assay: Inhibition of recombinant human IDO1 expressed in bacterial expression system at 250 uM using L-Tryptophan as substrate after 25 mins by fluorescence assay relative to control

Sequence of Indoleamine 2,3-dioxygenase 1 (Homo sapiens, UniProt P14902, S167A) (P14902 whole entry S167A): as the sequence (P14902 whole entry S167A) above

SMILES: CC1=CC(C)(C)NC(=S)N1c1cccc2cc(S(N)(=O)=O)ccc12
- IC50 [1]: 1000 µM
- inhibition [2]: -8%
- Ratio IC50 (Homo sapiens): 36.2
- IC50 [3]: 27.6 µM

SMILES: Fc1ccccc1-c1nc2c3ccccc3c3ccccc3c2[nH]1
- IC50 [1]: 108 µM
- Ratio IC50 (Homo sapiens): 0.5
- IC50 [3]: 231 µM

- inhibition [4]: 1%
SMILES: Oc1ccccc1-c1nc2ccccc2[nH]1

SMILES: c1ccc(-c2c[nH]cn2)cc1
- CC50 at 24 h [5]: > 1150 µM

SMILES: Oc1ccccc1-c1nc2c3ccccc3c3ccccc3c2[nH]1
- inhibition [6]: < 25%
- IC50 [7]: 4.9 µM
- IC50 [8]: 7.8 µM
- IC50 [1]: 26 to 980 µM
- inhibition [2]: 2%
- Ratio IC50 (Homo sapiens): 8 to 109
- IC50 [3]: 3.3 to 9 µM
- IC50 [9]: 52 µM
- CC50 at 24 h [5]: > 100 µM

SMILES: O=C1C(c2ccccc2)=[N+]([O-])c2ccccc21
- IC50 [1]: 3 µM
- Ratio IC50 (Homo sapiens): 3
- IC50 [3]: 0.87 µM
- IC50 [9]: 2.3 µM
- CC50 at 24 h [5]: 14 µM

SMILES: Cc1ccccc1C1=[N+]([O-])c2ccccc2C1=O
- inhibition [10]: > 75%
- IC50 [1]: 2.2 µM
- Ratio IC50 (Homo sapiens): 5
- IC50 [3]: 0.46 µM
- IC50 [9]: 3.9 µM
- CC50 at 24 h [5]: 12 µM

SMILES: CC[C@@H](CNc1cc(OC)cc2cccnc12)NC1CCCCC1
- IC50 [1]: 1000 µM
- inhibition [2]: -6%
- Ratio IC50 (Homo sapiens): 18.5
- IC50 [3]: 54.1 µM

SMILES: Cc1cc(I)ccc1Nc1cc2nonc2cc1C(=O)O
- IC50 [1]: 42 µM
- Ratio IC50 (Homo sapiens): 1
- IC50 [3]: 41 µM

SMILES: Oc1ccc(-c2nc3c4ccccc4c4ccccc4c3[nH]2)cc1
- inhibition [11]: 14%
- Ratio IC50 (Homo sapiens): > 2
- IC50 [3]: 522 µM

- inhibition [12]: 21%
SMILES: O=C1c2ccccc2CC1c1ccccc1 (stereo not drawn)

SMILES: Cc1ccc2c(c1)c1ccc3c(c1n2C)C(=O)C=CC3=O
- IC50 [1]: 1000 µM
- inhibition [2]: -4%
- Ratio IC50 (Homo sapiens): 21.4
- IC50 [3]: 46.7 µM

SMILES: c1ccc(NCCSc2nc3ccccc3s2)cc1
- IC50 [13]: 8.2 µM
- inhibition [14]: 70.8%
- IC50 [3]: 115 µM

SMILES: COc1cc2c(cc1OC)[N+]([O-])=C(c1ccccc1)C2=O
- IC50 [7]: 1.5 µM
- IC50 [8]: 9.3 µM
- IC50 [1]: 206 to 1000 µM
- inhibition [2]: 0%
- Ratio IC50 (Homo sapiens): 16.7 to 50
- IC50 [3]: 4.1 to 60 µM
- IC50 [9]: 4.3 µM
- CC50 at 24 h [5]: 25 µM

- inhibition [15]: 20%
SMILES: CCC1=C(c2ccccc2)C(=O)c2ccccc21

- inhibition [16]: 14%
SMILES: CC(=O)NC1=C(c2ccccc2)C(=O)c2ccccc21

- inhibition [17]: 5%
SMILES: COc1ccc(C2=Nc3ccccc3C2=O)cc1

- inhibition [18]: -1%
SMILES: Cc1ccc(NCSc2ccc(Cl)cc2)cc1

SMILES: Nc1nonc1C(=NO)Nc1ccc(F)c(Cl)c1
- CC50 at 24 h [5]: > 5 µM

SMILES: C=Cc1cc(OC)c2c(c1)c(=O)oc1c2cc(OC)c2c(O)ccc([C@@H]3O[C@H](C)[C@H](O)[C@@](C)(O)[C@H]3O)c21
- IC50 [1]: 230 µM
- inhibition [2]: 8%
- Ratio IC50 (Homo sapiens): 10.2
- IC50 [3]: 22.6 µM

SMILES: c1ccc2c(c1)Nc1ccncc1S2
- IC50 [13]: 31.6 µM
- inhibition [14]: 38.8%
- IC50 [3]: 422 µM

SMILES: COc1c(O)ccc2c1CN1CCc3cc4c(cc3C1C2)OCO4 (stereo not drawn)
- IC50 [1]: 1000 µM
- Ratio IC50 (Homo sapiens): 28.1
- IC50 [3]: 35.6 µM

SMILES: O=[N+]([O-])c1ccc(Sc2cccc[n+]2[O-])c2nonc12
- IC50 [1]: 108 to 1000 µM
- inhibition [2]: -1%
- Ratio IC50 (Homo sapiens): 5 to 16.7
- IC50 [3]: 24 to 60 µM

SMILES: Cc1cc(I)ccc1Nc1cc2no[n+]([O-])c2cc1C(=O)O
- inhibition [11]: 2%
- Ratio IC50 (Homo sapiens): > 44
- IC50 [3]: 23 µM

SMILES: Oc1cccc(-c2nc3c4ccccc4c4ccccc4c3[nH]2)c1
- IC50 [1]: 173 µM
- Ratio IC50 (Homo sapiens): 2
- IC50 [3]: 112 µM

- inhibition [4]: 20%
SMILES: O=C1c2ccccc2C(=O)C1c1ccccc1

SMILES: O=[N+]([O-])c1ccc(NCSc2ccc(Cl)cc2)cc1
- IC50 [1]: 0.1 µM
- Ratio IC50 (Homo sapiens): 0.125
- IC50 [3]: 0.8 µM
- CC50 at 24 h [5]: 40 µM

SMILES: Cc1ccccc1-c1nc2c3ccccc3c3ccccc3c2[nH]1
- IC50 [1]: 464 µM
- Ratio IC50 (Homo sapiens): 1
- IC50 [3]: 512 µM
